These results are taken from article PMC8851771, “Molecular action of larvicidal flavonoids on ecdysteroidogenic glutathione S-transferase Noppera-bo in Aedes aegypti” (BMC Biology, 2022).

Data set [1] concerns the target T1, DmNobo (Drosophila melanogaster, UniProt Q7JYX0).
T1 construct: made in house; host or cells: E. coli
The data set can be described thus: GST activity inhibition assay with 3,4-DNADCF, DmNobo. It is filed as biochemical.

For data set [2], the target named is T1, DmNobo. The note with it: read-out: IC50 against DmNobo; cited from earlier work.
Data set [3] relates to DmNobo Asp-113 substituted with Ala. On the set-up: method as in PMID 32241910. The note with it: cited from earlier work.
The target of data set [4] is AeNobo-WT (Aedes aegypti, UniProt A0A1S4FIB3). Kind of data set: GST activity inhibition assay with 3,4-DNADCF, wild-type AeNobo. It is filed as biochemical. The procedure: We prepared a purified AeNobo recombinant protein (220-aa length) using an Escherichia coli protein expression system. The GST enzymatic activity was examined using the fluorogenic artificial substrate 3,4-dinitrobenzamidedichlorofluorescein (3,4-DNADCF).
The IC50 value was measured using an in vitro assay system as described previously. […] Five microliters of each diluted compound solution was mixed with 245 μL of solution A (100 mM sodium phosphate buffer at pH 6.5, 0.01% Tween 20, 2 mM GSH, and 50 ng/mL AeNobo-WT, 100 ng/mL AeNobo-E113A, and 200 ng/mL F39L). One hundred microliters of the mixture was dispensed into wells of a 96-well plate. One hundred microliters of solution B (0.2 μM 3,4-DNADCF and 100 mM sodium phosphate buffer at pH 6.5) was added to each well. In summary, the final reaction system comprised 100 mM sodium phosphate buffer (pH 6.5), 1 mM GSH, 0.005% Tween 20, 0.1 μM 3,4-DNACDF, and 25 ng/mL AeNobo, 50 ng/mL AeNobo-E113A, or 100 ng/mL AeNobo-F39L protein. The fluorescence intensity derived from 4-GS-3-NADCF, a product of this reaction, was measured for 3 min. IC50 values were estimated as described previously. The enzymatic assays under each condition were performed at least twice independently.
To identify inhibitors of AeNobo enzymatic activity, a high-throughput screening was performed as described in a previous study. Briefly, a core library of 9600 compounds obtained from the Drug Discovery Initiative, The University of Tokyo, was utilized for screening. In this screen, the enzymatic activity of AeNobo was detected using 3,4-DNADCF [29]. […] Then, 1 μL of solution B (4 μM 3,4-DNADCF, 100 mM sodium phosphate at pH 6.5, and 0.005% Tween 20) was added into each well. In summary, the reaction system comprised 5.6 ng/mL AeNobo protein, 2 μM 3,4-DNADCF, 1 mM GSH, 0.005% Tween 20, and 100 mM sodium phosphate at pH 6.5, together with each compound at 10 μM. The plate was incubated for 30 min at 25–27 °C and 2 μL of 10 mM N-ethylmaleimide was added into each well to stop the reaction. […] For the second screen, we assayed the IC50 values of the compounds against the enzymatic activity of AeNobo.

In data set [5] the target is AeNobo-E113A (Aedes aegypti, UniProt A0A1S4FIB3, E164K). The data set can be described thus: GST activity inhibition assay with 3,4-DNADCF, AeNobo-E113A. In kind it is biochemical. Particulars: at a concentration of 25 μM. The source says: The importance of the Glu-113–flavonoid hydrogen bond for flavonoid binding was biochemically examined with a recombinant mutated AeNobo protein carrying an E113A aa substitution (AeNobo-E113A).
(§1) pCold III plasmids expressing the AeNobo-E113A and AeNobo-F39L were constructed using KOD-Plus-Mutagenesis Kit (Toyobo). The following primers were used: E113A-F (5′-[…]-3′) and E113A-R (5′-[…]-3′) for AeNobo-E113A and F39L-F (5′-[…]-3′) and F39L-R (5′-[…]-3′) for AeNobo-F39L. We conducted inverse PCR using KOD-plus polymerase, pColdIII/AeNobo-WT plasmid, and the primer pair described above under the following conditions: pre-denaturation at 94 °C for 2 min, denaturation at 98 °C for 10 s, and extension at 68 °C for 6 min for 6 cycles. The PCR products were treated with DpnI at 37 °C for 1 h, followed by self-ligation using T4 polynucleotide kinase and Ligation High. After the transformation of DH5α bacteria using the ligation products, we extracted plasmid DNA from the colonies and verified their sequences to confirm whether the appropriate point mutations were introduced.
The IC50 value was measured using an in vitro assay system as described previously. A dilution series of compounds, ranging from 2.5 mM to 0.127 μM for DMG and from 2.5 mM to 4.9 μM for other compounds, was prepared by 2-fold serial dilution in DMSO. Five microliters of each diluted compound solution was mixed with 245 μL of solution A (100 mM sodium phosphate buffer at pH 6.5, 0.01% Tween 20, 2 mM GSH, and 50 ng/mL AeNobo-WT, 100 ng/mL AeNobo-E113A, and 200 ng/mL F39L). One hundred microliters of the mixture was dispensed into wells of a 96-well plate. One hundred microliters of solution B (0.2 μM 3,4-DNADCF and 100 mM sodium phosphate buffer at pH 6.5) was added to each well. In summary, the final reaction system comprised 100 mM sodium phosphate buffer (pH 6.5), 1 mM GSH, 0.005% Tween 20, 0.1 μM 3,4-DNACDF, and 25 ng/mL AeNobo, 50 ng/mL AeNobo-E113A, or 100 ng/mL AeNobo-F39L protein. The fluorescence intensity derived from 4-GS-3-NADCF, a product of this reaction, was measured for 3 min. IC50 values were estimated as described previously. The enzymatic assays under each condition were performed at least twice independently.

The test system of data set [6] is estrogen receptors (ERs). Particulars: does not promote ER binding activity to estrogen response elements; cited from earlier work.
The target in data set [7] is AeNobo-F39L (Aedes aegypti, UniProt A0A1S4FIB3, F90L). Kind of data set: GST activity inhibition assay with 3,4-DNADCF, AeNobo-F39L. It is filed as biochemical. The procedure: as §1
The IC50 value was measured using an in vitro assay system as described previously. A dilution series of compounds, ranging from 2.5 mM to 0.127 μM for DMG and from 2.5 mM to 4.9 μM for other compounds, was prepared by 2-fold serial dilution in DMSO. […] The fluorescence intensity derived from 4-GS-3-NADCF, a product of this reaction, was measured for 3 min. […]

Data set [8] concerns D. melanogaster 1st instar larvae. Kind of data set: Drosophila melanogaster survival assay. In kind it is in vivo. Particulars: 10 ppm in food. The procedure:
We also conducted larvicidal assays using D. melanogaster. When we placed D. melanogaster 1st instar larvae in food containing 10 ppm DMG, pupariation rate and pupation timing were not affected when compared with a control group (Additional file 1: Figure S10). […] A […] DMG stock solution was prepared in 100% DMSO. Ten microliters of the DMG stock solution or 10 μL of DMSO alone was mixed with 10 g of standard cornmeal medium and 1 mL of autoclaved water. The volume of the mixed food was approximately 10 mL, and therefore, the food contained 0.1% DMSO with or without 10 ppm DMG. Two grams of the food were dispensed into each 12-mL plastic vial (Sarstedt). D. melanogaster wild-type Canton-S were given the opportunity to lay eggs on a grape juice agar with yeast paste for 12 h. After egg collection, the embryos were reared at 25 °C for 24 h, and then 20 1st instar larvae were transferred to each vial and reared at 25°C. The numbers of pupae were counted daily, and the timing of pupation was recorded.

The test system of data set [9] is Ae. aegypti 1st instar larvae. The data set can be described thus: Aedes aegypti larvicidal assay. In kind it is in vivo. The note with it: above 10 ppm, 24-h treatment. As to the method:
To test this, we conducted larvicidal assays using Ae. aegypti larvae.
The dried eggs on filter papers were soaked in distilled water. Three hours after soaking, the first instar larvae were transferred to 30 mL of fresh distilled water in a 50-mL plastic cup with a lid containing air holes. In the rearing water, 2 mg of the powdered goldfish food (Hikari Medium Grain, Kyorin Co., Ltd.) was added to each cup as food for Ae. aegypti larvae. In each cup, we poured the 30 mL rearing water containing 1 ppm, 10 ppm, or 100 ppm of the compounds with 0.1% ethanol at the final concentration, followed by placing 20 larvae. Twenty-four hours after the addition of flavonoids, the number of living and dead larvae was recorded. Larvacidal assays under each condition were performed 5 times independently. The larval instars 24 h after the addition of DMG were identified by measuring the transverse diameter of the Ae. aegypti larval head. Photographs of whole bodies of larvae were taken and the head diameter was then measured using ImageJ software.

In data set [10] the target is Aedes aegypti Noppera-bo (AeNobo), wild type, 220-aa protein (Aedes aegypti). Kind of data set: SEC; gel filtration of purified AeNobo on HiLoad Superdex200 26/60; 150 mM NaCl, 25 mM Tris-HCl pH 8.0, 5 mM DTT; 1 mL/min; compared with marker proteins. A general note: In gel filtration, larger molecules generally elute earlier.

The term IC50 denotes the concentration that gives 50% inhibition. The term stoichiometry N denotes a count of units in the complex or per binding partner.

Where two headings read alike, the source gives them in different places.

AeNobo-WT, sequence (A0A1S4FIB3 entry or part of it): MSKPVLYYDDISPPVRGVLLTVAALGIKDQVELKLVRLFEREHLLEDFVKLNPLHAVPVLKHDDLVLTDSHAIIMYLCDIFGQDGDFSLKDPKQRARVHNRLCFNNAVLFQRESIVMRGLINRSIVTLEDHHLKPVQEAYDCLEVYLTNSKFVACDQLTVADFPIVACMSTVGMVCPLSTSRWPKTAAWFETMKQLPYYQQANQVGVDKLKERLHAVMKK
T1 sequence (Q7JYX0 whole entry): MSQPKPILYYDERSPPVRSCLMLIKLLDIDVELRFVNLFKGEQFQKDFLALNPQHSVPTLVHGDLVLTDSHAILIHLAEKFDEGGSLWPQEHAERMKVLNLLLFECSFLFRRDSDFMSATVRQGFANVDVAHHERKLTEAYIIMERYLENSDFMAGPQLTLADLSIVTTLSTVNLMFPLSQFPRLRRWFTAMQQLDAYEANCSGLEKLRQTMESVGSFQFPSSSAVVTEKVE
AeNobo-F39L, sequence (A0A1S4FIB3 entry or part of it F90L): as the sequence (A0A1S4FIB3 entry or part of it) above, with F39L counted along it
AeNobo-E113A, sequence (A0A1S4FIB3 entry or part of it E164K): as the sequence (A0A1S4FIB3 entry or part of it) above, with E113K counted along it

With `C[C@]12CC[C@@H]3c4ccc(O)cc4CC[C@H]3[C@@H]1CC[C@@H]2O` [17β-estradiol], the IC50 is 2330 ± 80 nM in [1]; 1200 to 2300 nM in data set [2]; 21.3 µM in data set [4] (text and figures, 3,4-DNADCF, read-out: IC50 against AeNobo (WT)). Further, in data set [3], the “Inhibition of enzymatic activity of DmNobo with Asp-113 substituted with Ala” value is listed as “does not inhibit”. Moreover, the “IC50 against AeNobo relative to that against DmNobo” value in data set [4] (higher against AeNobo) is given as “approximately 10 fold”.
With `O=c1c(-c2ccc(O)cc2)coc2cc(O)c(O)cc12` [Desmethylglycitein, 4′,6,7-trihydroxyisoflavone], the “Inhibition of enzymatic activity of AeNobo-E113A” value in [5] is “not inhibited”. For the same compound, in data set [6], the Estrogenic activity entry is listed as “does not exhibit estrogenic activity”. Also, the IC50 in data set [4] (read-out: IC50 (μM) (mean ± s.d.)) was 0.293 ± 0.012 µM; in [7] it was 1160 nM. The Development to adults entry in data set [8] was “most larvae became adults”. Also, the “Pupariation rate and pupation timing compared with control” value in data set [8] (1st instar larvae) is recorded as “not affected”. In addition, the Lethality result in data set [9] is “high lethality”.
“Aedes aegypti Noppera-bo (AeNobo), wild type, 220-aa protein (enzyme)” came in with a stoichiometry N in data set [10] of 2.
